The results in this text go back to ChEMBL document CHEMBL1123949, “Molecular structure of fluoxetine hydrochloride, a highly selective serotonin-uptake inhibitor” (J Med Chem, 1988).

Test [1] is filed under the species Rattus norvegicus. Kind of test: In vitro inhibition of norepinephrine (NE) uptake in crude rat brain synaptosomes. It counts as functional, organism-based.
The species entered for test [2] is Rattus norvegicus. Kind of test: In vitro inhibition of serotonin (5-HT) uptake in crude rat brain synaptosomes. Type of test: functional, organism-based.
Test [3] is filed under the species Rattus norvegicus. Kind of test: In vitro inhibition of norepinephrine (NE) uptake in crude rat brain synaptosomes (% inhibition at maximum concentration).

Regarding `NC12CCC(c3ccccc3)(CC1)CC2`, the IC50 (commonly the concentration needed to halve the response being measured) worked out at 80 nM in the test listed under Rattus norvegicus [1] and 95 nM in the test listed under Rattus norvegicus [2].

As to `CN[C@@H]1CCC(c2ccccc2)c2ccccc21` (stereo partly drawn), the half-inhibitory concentration (IC50) turned out to be 18 nM in the test filed under Rattus norvegicus [1] and 840 nM in the test listed under Rattus norvegicus [2].

For `NC12CCC(c3ccc(Br)cc3)(CC1)CC2`, the concentration for half-maximal inhibition (IC50) in the test listed under Rattus norvegicus [1] amounted to 54000 nM; in the test listed under Rattus norvegicus [2] it was 680 nM.

With `CNCCCOc1ccc(C(F)(F)F)cc1`, the concentration for half-maximal inhibition (IC50) is greater than 10000 nM in the test filed under Rattus norvegicus [1] and 3000 nM in the test listed under Rattus norvegicus [2].

With `CC(N)C(=O)OC(C)(C)Cc1ccc(Cl)cc1` (stereo not drawn) [ALAPROCLATE], the IC50 in the test listed under Rattus norvegicus [1] was greater than 34000 nM; in the test listed under Rattus norvegicus [2] it was 700 nM.

For the compound `CNCC[C@@H](Oc1ccccc1C)c1ccccc1` [ATOMOXETINE], the IC50 in the test listed under Rattus norvegicus [1] amounted to 4 nM; in the test listed under Rattus norvegicus [2] it was 1500 nM.

For the compound `COc1ccc(OC[C@H]2CN(C)CC[C@@H]2c2ccccc2)cc1` [FEMOXETINE], the IC50 in the test listed under Rattus norvegicus [1] came out at 410 nM; in the test filed under Rattus norvegicus [2] it was 8.3 nM.

As to `CNCCC(Oc1ccc(C(F)(F)F)cc1)c1ccccc1` (stereo not drawn) [FLUOXETINE], the values for the IC50 in the test filed under Rattus norvegicus [3] and in the test filed under Rattus norvegicus [2] were greater than 10000 nM and 70 nM, respectively.

As to `CNCCC(Oc1ccccc1OC)c1ccccc1` (stereo not drawn) [NISOXETINE], the IC50 in the test listed under Rattus norvegicus [1] is 10 nM; in the test filed under Rattus norvegicus [2], 2000 nM.
